Results reported in patent US20180010188A1, “METHOD FOR DETECTING NONSENSE-MEDIATED RNA DECAY” (The Regents of the University of California, priority 2016, published 2018).

Test system: Perk transcripts
Assay: Perk transcript levels by RT-qPCR
Format: cell-based, mouse
Settings: thapsigargin in control siRNA-pretreated cells
Experimental: Two independent siRNAs reduced the endogenous Perk transcripts to around 20% (FIG. 4A).
Neuro-2a (N2a) cells were maintained in N2a complete media consisting of L-glutamine-free Dulbecco's modified Eagle's medium (DMEM), 10% FBS and 1× GlutaMAX at 37° C. Thapsigargin (VWR, cat. no. 89161-410), ionomycin (Fisher Scientific, cat. no. AG-CN2-0416-M001) and ouabain octahydrate (Fisher Scientific, cat. no. 80055-364) were dissolved in DMSO and stored at −80° C. For the application of these chemicals, 750,000 cells were plated on 35 mm BioLite TC plates and incubated with 2 ml of N2a complete media overnight before treatment with the drugs at the indicated concentrations. The cells were collected at 5 hours post-treatment unless otherwise specified. The PERK inhibitor GSK2606414 (Thermo Fisher, cat. no. 501016108) was dissolved in DMSO and stored at −20° C. N2a cells were incubated with GSK2606414 for 1 hour before thapsigargin treatment. For L-glutamine deprivation, 750,000 N2a cells were plated overnight and switched to L-glutamine-free DMEM with 10% FBS. […]
Trizol (Life Technologies, cat. no. 15596-018) was directly added to the cells or mouse brain tissues to extract total RNA following the Trizol Reagent standard protocol. […] RNA concentrations were measured using a Nanodrop 2000c (Thermo Fisher). […] Relative expression (fold changes) was calculated using the ΔΔCt method. […]

C/C=C(/C)C(=O)O[C@H]1C(C)=C2[C@H]([C@@H]1OC(=O)CCCCCCC)[C@@](C)(OC(C)=O)C[C@H](OC(=O)CCC)[C@@]1(O)[C@H]2OC(=O)[C@@]1(C)O [thapsigargin]
Perk transcript levels: increased
